system: AMPA receptors; experiment: AMPA ES cell FLIPR screen (AMPA Potentiator Assay); type: cell-based; details: murine ES cell-derived neurons, FLIPR Fluo-4 calcium signal, 32 uM AMPA challenge; values marked * are the geometric mean of 2-9 EC50 determinations
Experimental: The murine ES cell line used was E14-Sx1-16C, which has a targeted mutation in the Sox1 gene, a neuroectodermal marker, that offers G418 resistance when the Sox1 gene is expressed (Stem Cell Sciences). ES cells were maintained undifferentiated as previously described (Roach). […] ES cells were plated on gelatin-coated dishes (BD Biosciences), the media was changed daily and the cells were dissociated with 0.05% Trypsin EDTA (Invitrogen) every other day.
Embryoid Body Formation: Prior to embryoid body (EB) formation the ES cells were weaned from FBS onto Knockout Serum Replacement (KSR) (Invitrogen). To form EBs, ES cells were dissociated into a single cell suspension, then 3×10^6 cells were plated in bacteriology dishes (Nunc 4014) and grown as a suspension culture in NeuroEB-I medium that consisted of Knockout™ D-MEM (Invitrogen), supplemented with 10% KSR (Invitrogen), 0.2 mM L-Glutamine (Invitrogen), 0.1 mM MEM non-essential amino acids (Invitrogen), 30 μg/ml Gentamicin (Invitrogen), 1000 u/ml ESGRO (Chemicon), 0.1 mM 2-Mercaptoethanl (Sigma) and 150 ng/ml Transferrin (Invitrogen). The plates were put on a Stovall Belly Button shaker in an atmospheric oxygen incubator. The media was changed on day 2 of EB formation with NeuroEB-I and on day 4 with NeuroEB-II (NeuroEB-I plus 1 μg/ml mNoggin [R&D Systems]).
Neuronal Precursor Selection and Expansion: On day 5 of EB formation, EBs were dissociated with 0.05% Trypsin EDTA, and 4×10^6cells/100 mm dish were plated on Laminin coated tissue culture dishes in Neuroll-G418 medium that consisted of a base medium of a 1:1 mixture of D-MEM/F12 supplemented with N2 supplements and NeuroBasal Medium supplemented with B27 supplement and 0.1 mM L-Glutamine (all from Invitrogen). The base medium was then supplemented with 10 ng/ml bFGF (Invitrogen), 1 μg/ml mNoggin, 500 ng/ml SHH—N, 100 ng/ml FGF-8b (R&D Systems), 1 μg/ml Laminin and 200 μg/ml G418 (Invitrogen) for selection of neuronal precursors expressing Sox-1. The plates were put in an incubator that contained 2% Oxygen and were maintained in these conditions. During the 6-day selection period, the Neuroll media was changed daily. On day 6, the surviving neuronal precursor foci were dissociated with 0.05% Trypsin EDTA and the cells were plated at a density of 1.5×10^6 cells/100 mm Laminin coated dish in Neuroll-G418 medium. The cells were dissociated every other day for expansion, and prepared for Cryopreservation at passage 3 or 4. The crypreservation medium contained 50% KSR, 10% Dimethyl Sulfoxide (DMSO) (Sigma) and 40% Neurol-G418I medium. Neuronal precursors were crypreserved at a concentration of 4×10^6 cells/ml and 1 ml/cryovial in a controlled rate freezer overnight then transferred to an ultra-low freezer or liquid nitrogen for long-term storage.
Neuronal Differentiation: Cryopreserved ES cell-derived neuronal precursors were thawed by the rapid thaw method in a 37-degree water-bath. The cells were transferred from the cryovial to a 100 mm Laminin coated tissue culture dish that already contained Neuroll-G418 that had been equilibrated in a 2% Oxygen incubator. The media was changed with fresh Neuroll-G418 the next day. The cells were dissociated every other day as described above for expansion to generate enough cells to plate for the screen. For the screen, the cells were plated into 384-well poly-d-lysine coated tissue culture dishes (BD Biosciences) by the automated SelecT at a cell density of 6K cells/well in differentiation medium Neurolll that contained a 4:1 ratio of the NeuroBasalMedium/B27:D-MEM/F12/N2 supplemented with 1 μM cAMP (Sigma), 200 μM Ascorbic Acid (Sigma), 1 μg/ml Laminin (Invitrogen) and 10 ng/ml BDNF (R&D Systems). The plates were put in an incubator with 2% Oxygen and allowed to complete the differentiation process for 7 days. The cells could then be used over a 5-day period for the high throughput screen.
On the day of the assay, the FLIPR assay may be performed using the following methods: […]

Row | Compound | EC50
1 | CCOc1ccccc1-c1ccc([C@@H]2NC(=O)CC[C@H]2NS(=O)(=O)C(C)C)cc1 [Example 10, N-[(2S,3R)-2-(2′-ethoxybiphenyl-4-yl)-6-oxopiperidin-3-yl]propane-2-sulfonamide] | > 7.52 µM
2 | CC(C)S(=O)(=O)N[C@@H]1COCC[C@@H]1c1ccc(-c2ccccc2)cc1 [Example 13, N-[(3S,4R)-4-biphenyl-4-yltetrahydro-2H-pyran-3-yl]propane-2-sulfonamide] | > 31.6 µM
3 | CCOc1ccccc1-c1ccc([C@@H]2COCC[C@H]2NS(=O)(=O)C(C)C)cc1 [Example 35, N-[(3S,4R)-3-(2′-ethoxybiphenyl-4-yl)tetrahydro-2H-pyran-4-yl]propane-2-sulfonamide] | 4.57 µM
4 | CCOc1ccccc1-c1ccc([C@@H]2COCC[C@@H]2NS(=O)(=O)C(C)C)cc1 [Example 27, N-[(3S,4S)-3-(2′-ethoxybiphenyl-4-yl)tetrahydro-2H-pyran-4-yl]propane-2-sulfonamide] | 0.32 µM
5 | CC(C)S(=O)(=O)N[C@@H]1COCC[C@H]1c1ccc(-c2ccccc2)cc1 [Example 15, N-[(3S,4S)-4-biphenyl-4-yltetrahydro-2H-pyran-3-yl]propane-2-sulfonamide] | > 31.6 µM
6 | CCOc1ccccc1-c1ccc([C@H]2NC(=O)CC[C@@H]2NS(=O)(=O)C(C)C)cc1 [Example 50, N-[(2R,3S)-2-(2′-ethoxybiphenyl-4-yl)-6-oxopiperidin-3-yl]propane-2-sulfonamide] | 1.71 µM
7 | CC(C)S(=O)(=O)N[C@@H]1CCC(=O)N[C@H]1c1ccc(-c2ccccc2)cc1 [Example 12, N-[(2S,3R)-2-biphenyl-4-yl-6-oxopiperidin-3-yl]propane-2-sulfonamide] | 12.2 µM
8 | CCOc1ccccc1-c1ccc([C@H]2OCCC[C@@H]2NS(=O)(=O)C(C)C)cc1 [Example 44, N-[(2R,3S)-2-(2′-ethoxybiphenyl-4-yl)tetrahydro-2H-pyran-3-yl]propane-2-sulfonamide] | 0.493 µM
9 | CCOc1ccccc1-c1ccc([C@@H]2CCOC[C@@H]2NS(=O)(=O)C(C)C)cc1 [Example 63, N-[(3R,4S)-4-(2′-ethoxybiphenyl-4-yl)tetrahydro-2H-pyran-3-yl]propane-2-sulfonamide] | 0.669 µM
10 | CC(C)S(=O)(=O)N[C@@H]1CCC(=O)N[C@H]1c1ccc(-c2ccccc2C#N)cc1 [Example 52, N-[(2S,3R)-2-(2′-cyanobiphenyl-4-yl)-6-oxopiperidin-3-yl]propane-2-sulfonamide] | > 31.6 µM
11 | CC(C)S(=O)(=O)N[C@H]1CCC(=O)N[C@@H]1c1ccc(-c2ccccc2C#N)cc1 [Example 54, N-[(2R,3S)-2-(2′-cyanobiphenyl-4-yl)-6-oxopiperidin-3-yl]propane-2-sulfonamide] | 2.29 µM
12 | CC(C)S(=O)(=O)N[C@H]1COCC[C@@]1(O)c1ccc(-c2ccccc2)cc1 [Example 3, N-[(3S,4R)-4-biphenyl-4-yl-4-hydroxytetrahydro-2H-pyran-3-yl]propane-2-sulfonamide] | 4.3 µM
13 | CCOc1ccccc1-c1ccc([C@H]2CCOC[C@H]2NS(=O)(=O)C(C)C)cc1 [Example 62, N-[(3S,4R)-4-(2′-ethoxybiphenyl-4-yl)tetrahydro-2H-pyran-3-yl]propane-2-sulfonamide] | > 31.6 µM

Second part, the molecule after the results:

Row | EC50 | Compound
14 | > 26.6 µM | CC(C)S(=O)(=O)N[C@@H]1CCOC[C@H]1c1ccc(-c2ccccc2C#N)cc1 [Example 32, N-[(3S,4R)-3-(2′-cyanobiphenyl-4-yl)tetrahydro-2H-pyran-4-yl]propane-2-sulfonamide]
15 | 1.71 µM | CC(C)S(=O)(=O)N[C@@H]1CCC(=O)N[C@H]1c1ccc(-c2ccc(C#N)s2)cc1 [Example 51, N-{(2S,3R)-2-[4-(5-cyano-2-thienyl)phenyl]-6-oxopiperidin-3-yl}propane-2-sulfonamide]
16 | > 31.6 µM | CCOc1ccccc1-c1ccc([C@H]2COCC[C@H]2NS(=O)(=O)C(C)C)cc1 [Example 28, N-[(3R,4R)-3-(2′-ethoxybiphenyl-4-yl)tetrahydro-2H-pyran-4-yl]propane-2-sulfonamide]
17 | 0.365 µM | CC(C)S(=O)(=O)N[C@H]1CCOC[C@@H]1c1ccc(-c2ccccc2)cc1 [Example 2, N-[(3R,4S)-3-biphenyl-4-yltetrahydro-2H-pyran-4-yl]propane-2-sulfonamide]
18 | 0.748 µM | CC(C)S(=O)(=O)N[C@H]1COCC[C@H]1c1ccc(-c2ccccc2C#N)cc1 [Example 57, N-[(3R,4S)-4-(2′-cyanobiphenyl-4-yl)tetrahydro-2H-pyran-3-yl]propane-2-sulfonamide]
19 | 0.22 µM | CCOc1ccccc1-c1ccc([C@H]2COCC[C@@H]2NS(=O)(=O)C(C)C)cc1 [Example 34, N-[(3R,4S)-3-(2′-ethoxybiphenyl-4-yl)tetrahydro-2H-pyran-4-yl]propane-2-sulfonamide]
20 | > 31.6 µM | CC(C)S(=O)(=O)N[C@@H]1COCC[C@H]1c1ccc(-c2ccc(C#N)s2)cc1 [Example 19, N-{(3S,4S)-4-[4-(5-cyano-2-thienyl)phenyl]tetrahydro-2H-pyran-3-yl}propane-2-sulfonamide]
21 | > 4.67 µM | CC(C)S(=O)(=O)N[C@@H]1CCOC[C@H]1c1ccc(-c2cccnc2)cc1 [Example 37, N-[(3S,4R)-3-(4-pyridin-3-ylphenyl)tetrahydro-2H-pyran-4-yl]propane-2-sulfonamide]
22 | 2.1 µM | CC(C)S(=O)(=O)N[C@H]1COCC[C@H]1c1ccc(-c2ccc(C#N)s2)cc1 [Example 59, N-{(3R,4S)-4-[4-(5-cyano-2-thienyl)phenyl]tetrahydro-2H-pyran-3-yl}propane-2-sulfonamide]
23 | > 31.6 µM | CC(C)S(=O)(=O)N[C@@H]1CCOC[C@H]1c1ccc(-c2ccccc2)cc1 [Example 33, N-[(3S,4R)-3-biphenyl-4-yltetrahydro-2H-pyran-4-yl]propane-2-sulfonamide]
24 | 0.255 µM | CC(C)S(=O)(=O)N[C@H]1CCOC[C@@H]1c1ccc(-c2ccc(F)cc2C#N)cc1 [Example 40, N-[(3R,4S)-3-(2′-cyano-4′-fluorobiphenyl-4-yl)tetrahydro-2H-pyran-4-yl]propane-2-sulfonamide]
25 | 10.3 µM | CC(C)S(=O)(=O)N[C@@H]1CCOC[C@@H]1c1ccc(-c2ccccc2C#N)cc1 [Example 23, N-[(3R,4R)-3-(2′-cyanobiphenyl-4-yl)tetrahydro-2H-pyran-4-yl]propane-2-sulfonamide]
26 | > 31.6 µM | CC(C)S(=O)(=O)N[C@@H]1COCC[C@@H]1c1ccc(-c2ccccc2C#N)cc1 [Example 56, N-[(3S,4R)-4-(2′-cyanobiphenyl-4-yl)tetrahydro-2H-pyran-3-yl]propane-2-sulfonamide]
27 | 4.04 µM | CC(C)S(=O)(=O)N[C@H]1CCOC[C@H]1c1ccc(-c2ccc(C#N)cc2)cc1 [Example 29, N-[(3S,4S)-3-(4′-cyanobiphenyl-4-yl)tetrahydro-2H-pyran-4-yl]propane-2-sulfonamide]
28 | > 31.6 µM | CC(C)S(=O)(=O)N[C@@H]1CCOC[C@@H]1c1ccc(-c2ccc(C#N)cc2)cc1 [Example 30, N-[(3R,4R)-3-(4′-cyanobiphenyl-4-yl)tetrahydro-2H-pyran-4-yl]propane-2-sulfonamide]
29 | 11 µM | CC(C)S(=O)(=O)N[C@H]1CCOC[C@H]1c1ccc(-c2ccc(C#N)s2)cc1 [Example 1, N-{(3S,4S)-3-[4-(5-cyano-2-thienyl)phenyl]tetrahydro-2H-pyran-4-yl}propane-2-sulfonamide]
30 | > 31.6 µM | CC(C)S(=O)(=O)N[C@@H]1CCOC[C@H]1c1ccc(-c2ccc(C#N)s2)cc1 [Example 42, N-{(3S,4R)-3-[4-(5-cyano-2-thienyl)phenyl]tetrahydro-2H-pyran-4-yl}propane-2-sulfonamide]

From US20110172297A1, “Oxopiperdinyl And Pyranyl Sulfonamides and Pharmaceutical Compositions Thereof” (Pfizer Inc, priority 2008, published 2011)
